The values below come from ChEMBL document CHEMBL1131307, “Novel nonnucleoside inhibitors of HIV-1 reverse transcriptase. 8. 8-Aryloxymethyl- and 8-arylthiomethyldipyridodiazepinones” (J Med Chem, 1998).

The species entered for series [1] is Homo sapiens. In words: (§1) In vitro metabolism in human liver microsomes. Type of series: ADME. (In general: Liver microsomes are vesicles of endoplasmic reticulum, rich in cytochrome P450 enzymes.)
The species named for series [2] is Homo sapiens. The description is as §1.
Series [3] deals with Human immunodeficiency virus type 1 reverse transcriptase (Human immunodeficiency virus 1), Q72547 [Y181C]. In words: Inhibitory activity against HIV-1 Y181C reverse transcriptase at 1 uM concentration.
In series [4] the target is Human immunodeficiency virus type 1 reverse transcriptase (Human immunodeficiency virus 1, UniProt Q72547). As to the kind of experiment: Inhibitory activity against HIV-1 wild-type reverse transcriptase.
The subject of series [5] is Human immunodeficiency virus type 1 reverse transcriptase (Human immunodeficiency virus 1), Q72547 [R221A]. In words: Inhibitory activity against HIV-1 Y188L reverse transcriptase at 1 uM concentration.
Series [6] addresses Human immunodeficiency virus type 1 reverse transcriptase (Human immunodeficiency virus 1, UniProt Q72547, Y181C). In words: Inhibitory activity against HIV-1 Y181C reverse transcriptase.
The test system of series [7] is C8166. As to the kind of experiment: (§2) Inhibitory activity against HIV-1 IIIB replication in C8166 cells. Type of series: functional, cell-based. Conditions: Homo sapiens.
For series [8], the system named is C8166. The series is described as §2. Type of series: functional. Conditions: Homo sapiens.
Series [9] addresses Human immunodeficiency virus type 1 reverse transcriptase (Human immunodeficiency virus 1, UniProt Q72547, K103N). In words: Inhibitory activity against HIV-1 Mutant Reverse transcriptase K103N.
Series [10] in a line: Compound was tested for its toxicity by using MTT toxicity assay. For orientation: Tetrazolium assays rely on reduction of a dye to a coloured formazan, in cell work by metabolically active cells.
Series [11] deals with Human immunodeficiency virus type 1 reverse transcriptase (Human immunodeficiency virus 1) (UniProt Q72547). In words: Inhibitory activity against HIV-1 wild-type reverse transcriptase at 1 uM concentration.
The target in series [12] is Human immunodeficiency virus type 1 reverse transcriptase (Human immunodeficiency virus 1, UniProt Q72547, Y188L). As to the kind of experiment: Inhibitory activity against HIV-1 Y188L reverse transcriptase.
Series [13] deals with Human immunodeficiency virus type 1 reverse transcriptase (Human immunodeficiency virus 1), Q72547 [R221A]. In words: Inhibitory activity against HIV-1 Y188L reverse transcriptase t 1 uM concentration.

Compound `Cc1ccnc2c1NC(=O)c1cccnc1N2C1CC1` [NEVIRAPINE] registered a Metabolism in series [1] of 2 pmol/min/mg.
In series [2], `CC(C)Nc1cccnc1N1CCN(C(=O)c2cc3cc(NS(C)(=O)=O)ccc3[nH]2)CC1` [DELAVIRDINE] returned a Metabolism of 144 pmol/min/mg.
Usually inhibition stands for the drop in the measured response relative to a control, in per cent. Read a low inhibition as little suppression. The term IC50 denotes the concentration at which inhibition is half-maximal. For `CCN1c2ncc(CN(C)c3ccccc3)cc2C(=O)N(C)c2ccc(Cl)nc21`, the results for the inhibition in series [3] and in series [5] were 18% and 17%, respectively. Also, the IC50 in [4] came out at 590 nM.
With `CCN1c2ncc(CSc3ncccn3)cc2C(=O)N(C)c2ccc(Cl)nc21`, the half-inhibitory concentration (IC50) stood at 30 nM in [4] and 60 nM in series [6].
The matching figures for `CCN1c2ncc(COc3ccc(F)cc3)cc2C(=O)N(C)c2ccc(Cl)nc21`: 280 nM and 1660 nM.
`CCN1c2ncc(COc3cc[n+]([O-])cc3)cc2C(=O)N(C)c2ccc(Cl)nc21`: the inhibition in series [3] amounted to 39%; in [5], 0%. Also, half-maximal inhibition in [4] (IC50) was put at 230 nM.
One may read the IC90 as the point of the concentration-response curve where the effect stands at 90%. In series [2], `CCN1c2ncc(COc3ccncc3)cc2C(=O)N(C)c2ccc(Cl)nc21` yielded a Metabolism of 53 pmol/min/mg. For the same compound, the IC50 in series [7] came to 6 nM; in series [4], 70 nM; in [9], 70 nM; in series [6], 260 nM. This compound registered an IC90 in [8] of 24 nM. Moreover, the CC30 in [10] is > 120000 nM.
`CCN1c2ncc(OCc3ccccc3)cc2C(=O)N(C)c2ccc(Cl)nc21`: the inhibition in series [3] is 0%; in [11] it was 20%; in series [5], 0%.
Consider `CCN1c2ncc(CSc3ccccc3)cc2C(=O)N(C)c2ccc(Cl)nc21`, for which the Metabolism in series [2] worked out at 554 pmol/min/mg. For the same compound, the IC50 in series [7] turned out to be 5 nM; in [12] it was 30 nM; in series [4], 20 nM; in series [9] it was 30 nM; in series [6] it was 10 nM. This compound also showed an IC90 in series [8] of 13 nM. Also, in [10], the CC30 was > 60000 nM.
On to `CCN1c2ncc(COc3cccc(C(=O)O)c3)cc2C(=O)N(C)c2ccc(Cl)nc21`, for which the IC50 was found to be 90 nM in [4], 190 nM in [9] and 550 nM in [6]. In series [10], the CC30 worked out at 250000 nM.
The compound `CCN1c2ncc(COc3cc[n+]([O-])cc3)cc2C(=O)N(C)c2ccc(F)nc21` registered an inhibition in series [5] of 31%.
`CCN1c2ncc(CS(=O)(=O)c3ccccc3)cc2C(=O)N(C)c2ccc(Cl)nc21` returned a Metabolism in [2] of 322 pmol/min/mg. In addition, the values for the IC50 in [12], in series [4] and in series [6] were 11000 nM, 100 nM and 60 nM, respectively.
`CCN1c2ncc(COc3ccc(C(=O)OC)cc3)cc2C(=O)N(C)c2ccc(Cl)nc21`: the inhibition was determined as 33% in series [3] and 0% in [5]. This compound also came in with an IC50 in series [4] of 800 nM.
For the compound `CCN1c2ncc(COc3cc[n+]([O-])c(C(F)(F)F)c3)cc2C(=O)N(C)c2ccc(Cl)nc21`, the IC50 in series [4] was determined as 120 nM; in [6] it was 270 nM.
In turn, `CCN1c2ncc(CSc3[nH]cnc4nncc3-4)cc2C(=O)N(C)c2ccc(Cl)nc21` yielded a Metabolism in series [2] of 336 pmol/min/mg. For the same compound, the values for the IC50 in series [12], in series [4] and in series [6] were 120 nM, 50 nM and 70 nM, respectively. In series [10], this compound displayed a CC30 of 40000 nM.
`CCN1c2ncc(COc3cccc(N(C)C)c3)cc2C(=O)N(C)c2ccc(Cl)nc21`: the inhibition amounted to 0% in series [3], 0% in [11] and 7% in [5].
Regarding `CCN1c2ncc(CNc3ccccc3)cc2C(=O)N(C)c2ccc(Cl)nc21`, the figures for the IC50 in series [4], in series [9] and in [6] were 80 nM, 50 nM and 370 nM, respectively. Also, in series [10], the CC30 was > 60000 nM.
Consider `CCN1c2ncc(C[S+]([O-])c3ccccc3)cc2C(=O)N(C)c2ccc(Cl)nc21` (configuration not stated), for which the IC50 is 2420 nM in series [12], 70 nM in series [4] and 140 nM in series [6]. In addition, in [10], the CC30 was determined as 45000 nM.
As for `CCN1c2ncc(COc3ccccc3C(=O)OC)cc2C(=O)N(C)c2ccc(Cl)nc21`, the values for the inhibition in series [3], in series [11] and in series [5] were 2%, 25% and 2%, respectively.
Regarding `CCN1c2ncc(COc3cccc(OC)c3)cc2C(=O)N(C)c2ccc(Cl)nc21`, the IC50 in [4] is 100 nM; in series [9] it was 130 nM; in series [6], 280 nM.
On to `CCN1c2ncc(C(=O)N(C)c3ccccc3)cc2C(=O)N(C)c2ccc(Cl)nc21`, for which the inhibition in series [3] was determined as 20%; in series [11], 15%; in series [13] it was 46%.
For `CCN1c2ncc(COc3ccc(O)cc3)cc2C(=O)N(C)c2ccc(Cl)nc21`, the inhibition in [3] was determined as 27%; in series [5], 21%. Moreover, half-maximal inhibition in series [4] (IC50) was put at 210 nM.
Consider `CCN1c2ncc(COc3ccccc3)cc2C(=O)N(C)c2ccc(Cl)nc21`, for which the Metabolism in series [2] came to 171 pmol/min/mg. Moreover, the IC50 in [7] amounted to 50 nM; in series [12], 640 nM; in [4], 110 nM; in series [9] it was 20 nM; in series [6] it was 60 nM. Besides, in series [8], the IC90 was determined as 113 nM. For the same compound, the CC30 in series [10] is > 60000 nM.
Regarding `CCN1c2ncc(COc3cccc(N)c3)cc2C(=O)N(C)c2ccc(Cl)nc21`, the IC50 in series [7] turned out to be 19 nM; in series [12] it was 370 nM; in [4], 50 nM; in [6] it was 100 nM. In series [8], this compound returned an IC90 of 36 nM.
In [2], `CCN1c2ncc(CCc3ccncc3)cc2C(=O)N(C)c2ccc(Cl)nc21` yielded a Metabolism of 145 pmol/min/mg. In addition, the IC50 in [12] came to 1850 nM; in series [4] it was 80 nM; in series [9], 120 nM; in series [6], 120 nM.
Regarding `CCN1c2ncc(COc3cccc(C(=O)OC)c3)cc2C(=O)N(C)c2ccc(Cl)nc21`, the figures for the inhibition in series [3] and in series [5] were 23% and 11%, respectively. The IC50 in [4] was 700 nM.
Take `CCN1c2ncc(COc3ccnc(C)c3)cc2C(=O)N(C)c2ccc(Cl)nc21`: the IC50 is 230 nM in series [12], 30 nM in series [4] and 30 nM in series [6].
`CCN1c2ncc(CSc3ccncc3)cc2C(=O)N(C)c2ccc(Cl)nc21`: the Metabolism in series [2] amounted to 372 pmol/min/mg. Besides, the IC50 is 20 nM in series [4] and 50 nM in series [6].
As to `CCN1c2ncc(COc3ccc4[nH]ccc4c3)cc2C(=O)N(C)c2ccc(Cl)nc21`, the IC50 in series [4] is 310 nM; in series [6] it was 90 nM.
In the case of `CCN1c2ncc(COc3ccnc(C(F)(F)F)c3)cc2C(=O)N(C)c2ccc(Cl)nc21`, the Metabolism in [2] turned out to be 206 pmol/min/mg. The IC50 was 40 nM in series [4] and 70 nM in series [6].
Regarding `CCN1c2ncc(N(C)C(=O)c3ccccc3)cc2C(=O)N(C)c2ccc(Cl)nc21`, the results for the inhibition in series [3] and in series [5] were 22% and 13%, respectively. Further, the midpoint of inhibition in series [4], the IC50, lay at 210 nM.
`CCN1c2ncc(COc3cc[n+]([O-])cc3)cc2C(=O)N(C)c2cccnc21`: the concentration for half-maximal inhibition (IC50) was determined as 210 nM in [4] and 1340 nM in series [6].
Take `CCN1c2ncc(COc3cccc4[nH]ccc34)cc2C(=O)N(C)c2ccc(Cl)nc21`: the Metabolism in series [2] was determined as 208 pmol/min/mg. Besides, the IC50 in series [12] is 1360 nM; in series [4] it was 330 nM; in series [6] it was 200 nM. The CC30 in series [10] is > 30000 nM.
For the compound `CCN1c2ncc(CNc3cccc(N)c3)cc2C(=O)N(C)c2ccc(Cl)nc21`, the IC50 in [4] amounted to 60 nM; in [6], 100 nM. Further, the CC30 in [10] was determined as 60000 nM.
As to `CCN1c2ncc(COc3cccc([N+](=O)[O-])c3)cc2C(=O)N(C)c2ccc(Cl)nc21`, the IC50 was found to be 170 nM in series [4] and 350 nM in [6].
The compound `CCN1c2ncc(CCc3ccccc3)cc2C(=O)N(C)c2ccc(Cl)nc21` had a Metabolism in [2] of 288 pmol/min/mg. For the same compound, the IC50 in series [12] stood at 960 nM; in series [4], 50 nM; in [9] it was 50 nM; in [6], 150 nM.
Take `CCN1c2ncc(COc3cc[n+]([O-])c(C)c3)cc2C(=O)N(C)c2ccc(Cl)nc21`: the IC50 in series [12] came to 4310 nM; in series [4] it was 100 nM; in series [6] it was 210 nM.
As for `CCN1c2ncc(COc3ccncc3)cc2C(=O)N(C)c2ccc(F)nc21`, in series [2], the Metabolism was determined as 41 pmol/min/mg. The results for the IC50 in series [4], in series [9] and in series [6] were 50 nM, 40 nM and 190 nM, respectively. In addition, the CC30 in series [10] was 160000 nM.
Regarding `CCN1c2ncc(COc3ccncc3)cc2C(=O)N(C)c2cccnc21`, the IC50 in series [12] amounted to 5520 nM; in series [4] it was 20 nM; in series [9], 50 nM; in series [6], 140 nM. Moreover, in series [10], the CC30 is > 256000 nM.
As for `CCN1c2ncc(COc3cccc(F)c3)cc2C(=O)N(C)c2ccc(Cl)nc21`, the inhibition in series [3] is 11%; in [11] it was 24%; in series [5] it was 16%.
`CCN1c2ncc(COc3cccc(C(N)=O)c3)cc2C(=O)N(C)c2ccc(Cl)nc21` gave a Metabolism in series [2] of 292 pmol/min/mg. For the same compound, the IC50 in series [12] was found to be 340 nM; in [4] it was 30 nM; in series [6] it was 280 nM. The same compound displayed a CC30 in [10] of 130000 nM.
In the case of `CCN1c2ncc(NCc3ccccc3)cc2C(=O)N(C)c2ccc(Cl)nc21`, the IC50 in series [4] was found to be 260 nM; in series [6] it was 390 nM. Moreover, the inhibition in series [5] was found to be 0%.
As to `CCN1c2ncc(COc3ccccc3O)cc2C(=O)N(C)c2ccc(Cl)nc21`, the 50% inhibitory concentration (IC50) turned out to be 100 nM in series [4] and 350 nM in [6].
For the compound `CCN1c2ncc(COc3cccnc3)cc2C(=O)N(C)c2ccc(Cl)nc21`, the IC50 came out at 190 nM in series [4] and 260 nM in [6].
